The structures appear in SMILES notation.

What is called melting point is the temperature, or range, at which the solid turns liquid. Turning to `COc1ccc(C(=O)N2c3ccccc3C(N3CCCc4cc(NC(=O)OC(C)(C)C)ccc43)CC2C)cc1OC` (stereo unspecified), the melting point lay in the range of 192 to 193 °C.

Compound `O=C(Nc1ccc(F)cc1F)Nc1cnc2cc3c(cc2c1-c1ccccc1Cl)CCC3` came in with a melting point of 247 to 248 °C.

In turn, `CCOC(=O)C1=C(C)NC(CSCCOC(C)=O)=C(C(=O)OCC)C1c1cccc([N+](=O)[O-])c1` (stereo unspecified) gave a melting point of 84 to 86 °C. Under `COc1ccc(-c2ccc3cc(C(=O)O)ccc3c2)cc1C12CC3CC(C)(CC(C)(C3)C1)C2` stands 258 to 263 °C. Under `CCOC(=O)c1cc2c(C)ccc(OCCO)c2[nH]1` stands 166 to 167 °C; under `CC(C)(C)COc1c(-c2ccc(S(C)(=O)=O)cc2)cnn(-c2ccc(F)c(F)c2)c1=O`, 126 to 128 °C. Under `CCn1c(N)c(C(=O)NC)c(=O)c2cnc(-c3ccc(NC(=O)NCc4cccnc4)cc3)nc21` stands 250 °C. Take `CC(C)(C)c1cc(OC(=O)c2ccccc2)ccc1O`: the melting point lay within 120 to 121 °C. For the compound `CC1CCCN(c2cncc(C(=O)Nc3nnn[nH]3)n2)C1` (stereo unspecified), the melting point lay in the range of 236 to 238 °C.

In the case of `Cc1cc(SCc2cccc3[nH]c(-c4ccc(C(F)(F)F)cc4)cc23)ccc1OCC(=O)O`, the melting point lay in the range of 85 to 88 °C.

With `CC(C)C(=O)Nc1ccc(S(=O)(=O)c2ccc(F)cc2)cc1`, the melting point was in the range of 112 to 115 °C.

For `O=C(NCc1ccccc1)C1(CCCc2ccccc2)c2ccccc2-c2ccccc21`, the melting point turned out to be 94 °C. Under `CCc1ccccc1NS(=O)(=O)c1ccc(N2CCNC2=O)cc1` stands 171 to 172 °C. Under `CCOC(=O)c1cc(=O)c(O)c(-c2ccc(Cl)cc2)o1` stands 157 to 159 °C. For `O=C(O)CCN(C1(C(=O)NO)CCCC1)S(=O)(=O)c1ccc(-c2ccc(F)cc2)cc1` the value was 163 to 164 °C. `CC(=O)OC1CCC2(C)C(=CCC3C4CCC(=O)C4(C)CC(OC(C)=O)C32)C1` (stereo unspecified) came in with a melting point of 177 to 179 °C. As to `COc1ccc(-c2ccc(C(=O)Nc3cc4ncc(CN5CCCCCC5)cc4cc3C)cc2)cc1`, the melting point came to 161 °C.

The compound `O=C(COc1ccc(Cl)c2c(=O)c3ccccc3sc12)c1ccccc1` gave a melting point of 174 to 176 °C. For `Cc1nc(C)c(Cl)c(NCc2ccc(Oc3ccc4ncc([N+](=O)[O-])n4n3)cn2)n1` the value was 194 to 198 °C; for `CC(C)(C)OC(=O)Nc1cc(CO)c(C#Cc2ccc(F)cc2)cc1[N+](=O)[O-]`, 198 °C; for `COC(=O)c1c(F)c(F)c(NCc2ccccc2)c(F)c1F`, 96 to 97 °C. For `CC(C)(C)OC(=O)N1CCN(C(=O)SCc2ccc(OCc3ccc(F)cc3)cc2)CC1` the value was 123 to 124 °C. Under `CC1Cc2cc3c(cc2C(c2ccc([N+](=O)[O-])cc2)=NN1C1=NC(=O)CCS1)OCO3` (stereo unspecified) stands 220 to 221 °C; under `CC1(O)CC(=O)OC(CCc2ccccc2OCc2ccccc2)C1Br` (stereo unspecified), 122 to 125 °C; under `C[Si](C)(C)c1c(Br)cnc2c1CCO2`, 92 to 94 °C. `CCCC(CCC)NC(=O)c1ccc2oc(CCl)nc2c1` came in with a melting point of 108 to 109 °C. Compound `COc1cc(Cl)c2ncccc2c1` yielded a melting point of 74 to 75 °C. For `CCC1(C)CCCNC1=O` (stereo unspecified) the value was 67 to 69 °C; for `O=c1oc(-c2cccc(OC(F)(F)F)c2)cc(O)c1SCc1ccccc1`, 128 to 132 °C; for `O=C(O)c1ccc(Oc2ccc(Cl)cc2)cc1`, 161 to 164 °C. For the compound `O=C(NC(=O)c1c(F)cccc1F)Nc1ccc(OC(c2ccc(Cl)cc2)C2CC2)cc1` (stereo unspecified), the melting point lay in the range of 185 to 188 °C. Under `CCc1ccc2c(c1)C=Cc1oc(C)nc1C2c1cn(Cc2nc(C(=O)O)co2)c(=O)[nH]c1=S` (stereo unspecified) stands 210 °C. Under `Nc1nc(-c2ccc([N+](=O)[O-])o2)ns1` stands 168 to 170 °C; under `O=C(c1ccc(Cl)cc1)C(F)CCCl` (stereo unspecified), 53 °C; under `CC(C)NCC(O)COc1cccc(C2=NNC(=O)CC2)c1` (stereo unspecified), 137 to 141 °C. Under `O=C(O)c1ccc(NC(=O)c2ccc(Br)nc2)nc1` stands 270 to 272 °C; under `Nc1ncccc1-c1nc2cc(C(F)(F)F)cnc2n1-c1ccc(CNC(=O)c2cccc(F)c2)cc1`, 230 to 231 °C; under `CCOC(=O)c1cnc2c(cnn2CC)c1NN=C(C)CC#N`, 190 to 191 °C. Regarding `CC(Oc1cccc2c1C(=O)N(C1CCC(=O)NC1=O)C2=O)c1ccc2ccccc2c1` (stereo unspecified), the melting point lay within 174 to 176 °C. For `Nc1cc(=O)n(Cc2ccc([N+](=O)[O-])cc2)[nH]1` the value was 182 °C; for `CCOC(=O)c1cnc2sccc2c1O`, 137 to 139 °C; for `OCCc1nccn1Cc1coc(-c2ccc(OCc3coc(/C=C/c4ccc(Cl)cc4F)n3)cc2)n1`, 170 to 172 °C. Under `O=C1CCC(N2C(=O)c3cccc(OCc4ccc(CN5CCOCC5)cc4)c3C2=O)C(=O)N1` (stereo unspecified) stands 205 to 207 °C; under `O=C(OC(C(F)(F)F)C(F)(F)F)c1c2ccccc2nc2ccccc12`, 143 to 145 °C.

`O=C1NC(=S)SC1=Cc1ccc(Oc2ccccc2)cc1`: the melting point was 195 to 200 °C. For `CCc1[nH]n(C2CCCC2)c2nc(-c3ccc(OC)c(OCCN4CCOCC4)c3)nc(=O)c1-2` the value was 205 to 206 °C. For `O=C(c1ccccc1)c1cccc2c1NCC2` the value was 124 to 125 °C.

In turn, `COC(=O)CC1(C)Oc2ccc([N+](=O)[O-])cc2-n2c(Cl)ccc21` (stereo unspecified) came in with a melting point of 124 to 125 °C. On to `COc1cc2c(cc1F)CC/C2=C\C#N`, for which the melting point fell in the range of 197 to 199 °C. For `CC1c2cccc3c2N(CC3)c2ccccc2N1C(=O)CCN(C)C` (stereo unspecified) the value was 138 to 142 °C; for `Cc1[nH]c(C(=O)SCC(=O)O)nc1-c1cc(C(C)(C)C)c(O)c(C(C)(C)C)c1`, 252 to 254 °C. Under `O=C(NNC(=O)c1ccc([N+](=O)[O-])cc1)c1ccccc1` stands 254 to 256 °C; under `COC(=O)/C=C/c1cc([N+](=O)[O-])cn1C`, 146 to 147 °C. For `CCc1ccc(CCOc2ccc(NC(=O)N(C)OC)cc2)nc1` the value was 90.5 to 92 °C. In turn, `C#Cc1c(NC)c(F)cc2c(=O)c(C(=O)O)cn(-c3cc(N)c(F)cc3F)c12` came in with a melting point of 208 to 209 °C. For `COc1ccc(C(=O)c2ccc(Br)cc2)c(F)c1` the value was 125 to 126 °C; for `O=C(O)C1CN(C(=O)N(c2ccccc2)c2ccccc2)CCN1C(=O)N(c1ccccc1)c1ccccc1` (stereo unspecified), 244 to 246 °C. The compound `COc1cc2c(cc1C(=O)Cc1ccc(C(=O)O)cc1)C(C)(C)CCC2(C)C` came in with a melting point of 164 to 165 °C. Under `Cc1nc2cc(OCc3ccccc3)c(OCc3ccccc3)cc2nc1C(=O)OCc1ccccc1` stands 137 to 139 °C; under `COc1cc2c3ccc(OC)c(OC)c3n(C(=O)c3ccc(-c4ccccc4)cc3)c2cc1OC`, 150 to 153 °C.

`Cn1c(=O)c2conc2n(C2CCCCC2)c1=O` came in with a melting point of 194 to 197 °C. For `CS(=O)(=O)Nc1cc(O)ccc1Oc1ccccc1` the value was 138 to 140 °C; for `COc1cccc2c(Nc3cccc(N(C)C)c3)c(C#N)cnc12`, 222 to 225 °C. Compound `CN1CCN(c2cc3c(cc2F)c(=O)c(C(=O)O)cn3C2COC2)CC1` returned a melting point of 178 to 180 °C.

`CC#CCOc1cc(Oc2ccc(F)c(C(F)(F)F)c2)ncn1`: the melting point is 90.1 °C. For `CCOCc1nc2c(N)nc3cc(O)ccc3c2n1CC(C)(C)NC(C)=O` the value was 140 °C; for `CCCCn1nc(C(C)=O)nc1Cc1ccc(-c2ccccc2-c2nnn[nH]2)nc1`, 157 to 159 °C.

For the compound `COc1cc(OCc2ccccn2)ccc1/C=C/c1cc(/C=C/c2c[nH]c3ccc(F)cc23)n[nH]1`, the melting point fell in the range of 209 to 213 °C. Under `CCOP(=O)(OCC)c1ccc(/C=C/c2ccc3c(c2)C(C)(C)CCC3(C)C)cc1` stands 83 to 84 °C; under `COc1cc(C(=O)N2CCC(C(=O)C3CCCCC3)CC2)c([N+](=O)[O-])cc1OC`, 120 to 125 °C; under `CCCC(=O)OCn1cc(F)c(=O)[nH]c1=O`, 96 to 98 °C. For `CCCCc1nc2cc(C(=O)OC)ccc2n1Cc1ccc(-c2ccccc2-c2nnn[nH]2)cc1` the value was 134 to 136 °C; for `CCCOc1ccccc1-c1nc2cc3c(cc2c(=O)[nH]1)NCN3CC`, 147 to 149 °C; for `CC(C)(C)c1ccccc1N1CCN(C(=O)C2CCC(=O)N2Cc2ccccc2)CC1` (stereo unspecified), 164 °C. Under `COc1ccccc1-n1c(=O)[nH]c2c(C(N)=O)nc(-c3ccc4nc[nH]c4c3)nc21` stands 306 °C.

On to `C#Cc1cnc(OCCC)c(-c2nc3c(CC)n(C4CCN(C(=O)OC(C)(C)C)CC4)nc3c(=O)[nH]2)c1`, for which the melting point was determined as 221 °C.

`COc1ccc(Nc2ccc(Nc3ncnc4cc(-c5ccccc5[N+](=O)[O-])sc34)cc2)cc1` showed a melting point of 228 to 237 °C. Under `CCCCC1=CC(O)(C(Br)Br)N(c2ccccc2)C1=O` (stereo unspecified) stands 96 to 98 °C; under `S=C1NCC(Cl)=NN1c1cc(Cl)cc(Cl)c1`, 207 to 208 °C; under `c1ccc(CN2CCC3(Cc4ccccc4O3)C2)cc1` (stereo unspecified), 43 to 45 °C. For `CCOC(=O)c1cc2c(C=O)cc3c4ccccc4ccc3c2o1` the value was 209 to 212 °C; for `N#Cc1ccc2oc3c(c2c1)CCC(C(=O)O)C3` (stereo unspecified), 185 to 190 °C; for `O=C1NC(=O)C(Nc2cccc3ccccc23)S1` (stereo unspecified), 195 to 197 °C. Under `Cn1cc(C(=O)NCc2ccc(Cl)cc2)c(=O)c2cc(CN3CCSCC3)ccc21` stands 215 to 219 °C. Compound `Oc1cc(-c2ccco2)c2oc(-c3ccc(O)c(F)c3)nc2c1` displayed a melting point of 155 °C.

With `O=C1N(Cc2nc3cc(F)ccc3[nH]2)c2ccccc2C12COc1cc3c(cc12)OCO3` (stereo unspecified), the melting point was in the range of 138 to 142 °C.
